# Laboratory results taken from patent US9999622B2, “Pyrazolothiazole compound and medicine comprising same” (NIPPON SHINYAKU CO., LTD., priority 2014, dated 2018).
# Where a name gives a salt, the structure may show the parent alone.
# Tests used:
# Type in all cases: biochemical
# JAK2 = biological target: T1, JAK2 (Homo sapiens, UniProt O60674); experiment: JAK tyrosine kinase inhibitory activity in the presence of 1 mM ATP (ELISA), JAK2
# T1 construct: purchased Carna Biosciences, Inc
# How it was run: (§1)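 Kinase reactions ran on streptavidin-coated plates in 15 mM Tris-HCl pH 7.5, 0.01% Tween-20, 1 mM DTT, 30 °C for 1 h. Enzyme was prediluted to 7.5 nM (JAK1) or 0.75 nM (JAK2, JAK3) before addition. Phosphotyrosine was detected with HRP anti-pTyr antibody and TMB at A450.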
# JAK3 = biological target: T2, JAK3 (Homo sapiens, UniProt P52333); experiment: JAK tyrosine kinase inhibitory activity in the presence of 1 mM ATP (ELISA), JAK3
# T2 construct: purchased Carna Biosciences, Inc
# T2 sequence (P52333 1-1124): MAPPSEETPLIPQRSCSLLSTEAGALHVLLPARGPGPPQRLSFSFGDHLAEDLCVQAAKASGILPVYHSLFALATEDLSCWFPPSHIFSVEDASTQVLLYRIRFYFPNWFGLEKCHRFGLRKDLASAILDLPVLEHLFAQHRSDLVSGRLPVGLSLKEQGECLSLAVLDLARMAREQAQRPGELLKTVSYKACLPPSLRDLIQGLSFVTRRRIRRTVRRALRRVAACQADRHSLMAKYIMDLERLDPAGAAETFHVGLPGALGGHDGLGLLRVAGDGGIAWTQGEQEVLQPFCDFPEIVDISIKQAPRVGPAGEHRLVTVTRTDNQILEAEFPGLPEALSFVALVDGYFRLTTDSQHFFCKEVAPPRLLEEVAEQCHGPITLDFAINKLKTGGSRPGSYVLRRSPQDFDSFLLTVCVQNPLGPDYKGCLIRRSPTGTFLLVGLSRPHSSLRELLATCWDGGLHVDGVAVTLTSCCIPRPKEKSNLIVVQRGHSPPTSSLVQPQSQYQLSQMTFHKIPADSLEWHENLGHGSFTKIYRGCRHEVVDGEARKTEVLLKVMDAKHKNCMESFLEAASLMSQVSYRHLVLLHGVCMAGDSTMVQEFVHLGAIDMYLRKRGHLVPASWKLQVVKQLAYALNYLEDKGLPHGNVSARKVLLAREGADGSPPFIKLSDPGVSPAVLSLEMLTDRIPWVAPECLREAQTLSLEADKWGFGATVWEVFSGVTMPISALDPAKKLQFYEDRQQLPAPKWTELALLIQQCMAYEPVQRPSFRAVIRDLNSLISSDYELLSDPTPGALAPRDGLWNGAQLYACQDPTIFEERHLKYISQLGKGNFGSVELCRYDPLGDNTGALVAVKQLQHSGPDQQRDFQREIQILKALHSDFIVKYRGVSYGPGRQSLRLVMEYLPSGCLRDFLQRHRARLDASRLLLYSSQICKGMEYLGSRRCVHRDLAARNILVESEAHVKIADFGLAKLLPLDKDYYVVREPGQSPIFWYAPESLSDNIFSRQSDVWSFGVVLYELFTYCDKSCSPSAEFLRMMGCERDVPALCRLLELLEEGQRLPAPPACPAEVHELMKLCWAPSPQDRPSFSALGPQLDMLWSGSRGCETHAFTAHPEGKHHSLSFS
# How it was run: as §1
# JAK1 = biological target: T3, JAK1 (Homo sapiens, UniProt P23458); experiment: JAK tyrosine kinase inhibitory activity in the presence of 1 mM ATP (ELISA), JAK1
# T3 construct: purchased Carna Biosciences, Inc
# How it was run: as §1
# T3 sequence (P23458 whole entry): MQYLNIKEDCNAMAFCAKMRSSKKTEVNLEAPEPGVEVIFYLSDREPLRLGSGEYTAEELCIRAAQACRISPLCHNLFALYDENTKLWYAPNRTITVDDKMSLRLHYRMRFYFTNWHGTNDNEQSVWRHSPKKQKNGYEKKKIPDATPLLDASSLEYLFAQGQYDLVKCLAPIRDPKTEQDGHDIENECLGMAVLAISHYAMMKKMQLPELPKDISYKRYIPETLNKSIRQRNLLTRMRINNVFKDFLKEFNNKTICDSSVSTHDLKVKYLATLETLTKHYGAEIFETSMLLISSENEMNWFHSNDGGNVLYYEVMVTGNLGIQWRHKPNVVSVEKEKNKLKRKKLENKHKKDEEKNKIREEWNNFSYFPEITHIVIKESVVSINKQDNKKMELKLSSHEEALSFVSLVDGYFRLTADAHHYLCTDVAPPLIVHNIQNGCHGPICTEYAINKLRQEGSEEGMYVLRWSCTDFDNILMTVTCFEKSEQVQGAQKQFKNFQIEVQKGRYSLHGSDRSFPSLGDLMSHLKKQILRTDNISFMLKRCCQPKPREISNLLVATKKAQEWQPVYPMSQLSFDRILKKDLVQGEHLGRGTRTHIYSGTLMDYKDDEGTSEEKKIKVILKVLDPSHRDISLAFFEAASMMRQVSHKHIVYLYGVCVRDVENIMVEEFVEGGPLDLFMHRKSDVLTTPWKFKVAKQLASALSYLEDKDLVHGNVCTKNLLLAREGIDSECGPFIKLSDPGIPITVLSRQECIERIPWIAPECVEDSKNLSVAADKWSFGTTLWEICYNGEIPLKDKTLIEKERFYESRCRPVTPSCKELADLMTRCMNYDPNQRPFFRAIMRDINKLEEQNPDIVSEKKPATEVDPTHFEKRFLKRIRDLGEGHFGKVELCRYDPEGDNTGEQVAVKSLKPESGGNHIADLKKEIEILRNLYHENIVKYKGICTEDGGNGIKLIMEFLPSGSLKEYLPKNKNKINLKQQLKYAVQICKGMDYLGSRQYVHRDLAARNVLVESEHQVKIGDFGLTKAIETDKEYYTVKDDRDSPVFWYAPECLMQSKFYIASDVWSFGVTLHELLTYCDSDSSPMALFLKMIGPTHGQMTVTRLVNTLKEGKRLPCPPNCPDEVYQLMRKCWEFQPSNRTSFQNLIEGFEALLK
# T1 sequence (O60674 whole entry): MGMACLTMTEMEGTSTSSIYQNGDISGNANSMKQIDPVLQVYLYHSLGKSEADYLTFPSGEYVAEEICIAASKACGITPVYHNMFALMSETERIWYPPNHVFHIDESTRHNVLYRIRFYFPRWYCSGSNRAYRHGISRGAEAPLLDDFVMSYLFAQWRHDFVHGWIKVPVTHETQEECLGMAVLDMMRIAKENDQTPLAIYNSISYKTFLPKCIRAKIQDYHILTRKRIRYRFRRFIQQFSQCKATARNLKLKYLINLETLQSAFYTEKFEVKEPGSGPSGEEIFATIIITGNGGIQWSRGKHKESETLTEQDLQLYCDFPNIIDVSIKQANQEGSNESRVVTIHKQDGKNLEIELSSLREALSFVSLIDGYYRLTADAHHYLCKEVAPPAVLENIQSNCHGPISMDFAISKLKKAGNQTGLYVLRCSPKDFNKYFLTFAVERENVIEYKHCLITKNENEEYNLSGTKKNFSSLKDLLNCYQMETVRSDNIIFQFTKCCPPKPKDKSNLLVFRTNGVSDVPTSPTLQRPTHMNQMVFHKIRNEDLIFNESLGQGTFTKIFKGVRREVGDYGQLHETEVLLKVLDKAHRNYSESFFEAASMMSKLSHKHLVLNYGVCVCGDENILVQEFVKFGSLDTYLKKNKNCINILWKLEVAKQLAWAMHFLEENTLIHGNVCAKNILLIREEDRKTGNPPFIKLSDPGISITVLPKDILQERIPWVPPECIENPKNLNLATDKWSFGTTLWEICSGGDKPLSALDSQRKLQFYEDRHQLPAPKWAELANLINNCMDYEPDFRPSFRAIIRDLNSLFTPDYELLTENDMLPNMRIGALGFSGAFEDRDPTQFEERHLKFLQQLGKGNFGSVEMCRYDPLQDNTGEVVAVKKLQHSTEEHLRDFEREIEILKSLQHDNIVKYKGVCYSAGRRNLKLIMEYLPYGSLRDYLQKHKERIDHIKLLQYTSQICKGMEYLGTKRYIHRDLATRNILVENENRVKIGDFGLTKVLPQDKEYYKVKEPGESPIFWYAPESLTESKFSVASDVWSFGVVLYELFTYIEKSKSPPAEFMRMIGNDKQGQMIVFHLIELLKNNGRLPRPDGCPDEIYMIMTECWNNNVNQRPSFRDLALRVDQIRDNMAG
Structure (SMILES),IC50 (JAK2) [nM],IC50 (JAK3) [nM],IC50 (JAK1) [nM]
"CCC(CC)CNc1cc(C(=O)N2CCC(NC(=O)C3CC3)CC2)nc(-c2cnn3ccsc23)n1 [Example 110, N-[1-({6-[(2-Ethylbutyl)amino]-2-(pyrazolo[5,1-b][1,3]thiazol-7-yl)pyrimidin-4-yl}carbonyl)piperidin-4-yl]cyclopropanecarboxamide]",880,> 10000,78
"CCC(CC)Oc1cc(C(=O)N2CCC(NC(=O)C3CC3)CC2)nc(-c2cnn3ccsc23)n1 [Example 111, N-(1-{[6-(Pentan-3-yloxy)-2-(pyrazolo[5,1-b][1,3]thiazol-7-yl)pyrimidin-4-yl]carbonyl}piperidin-4-yl)cyclopropanecarboxamide]",2400,> 10000,120
"CCC(CC)N(C)c1cc(C(=O)N2CCC(NC(=O)OC)CC2)nc(-c2cnn3ccsc23)n1 [Example 112, Methyl [1-({6-[methyl(pentan-3-yl)amino]-2-(pyrazolo[5,1-b][1,3]thiazol-7-yl)pyrimidin-4-yl}carbonyl)piperidin-4-yl]carbamate]",3500,2900,350
"CCC(=O)NC1CCN(C(=O)c2cc(OCC(CC)CC)nc(-c3cnn4ccsc34)n2)CC1 [Example 114, N-(1-{[6-(2-Ethylbutoxy)-2-(pyrazolo[5,1-b][1,3]thiazol-7-yl)pyrimidin-4-yl]carbonyl}piperidin-4-yl)propanamide]",1200,2700,360
"CCC(=O)NC1CCN(C(=O)c2cc(N(C)C(CC)CC)nc(-c3cnn4ccsc34)n2)CC1 [Example 116, N-[1-({6-[Methyl(pentan-3-yl)amino]-2-(pyrazolo[5,1-b][1,3]thiazol-7-yl)pyrimidin-4-yl}carbonyl)piperidin-4-yl]propanamide]",1900,3800,210
"N#CC1(Nc2cc(C(=O)N3CCC(O)CC3)nc(-c3cnn4ccsc34)n2)CC1 [Example 117, 1-({6-[(4-Hydroxypiperidin-1-yl)carbonyl]-2-(pyrazolo[5,1-b][1,3]thiazol-7-yl)pyrimidin-4-yl}amino)cyclopropanecarbonitrile hydrochloride]",> 10000,5700,1400
"CCC(=O)NC1CCN(C(=O)c2cc(NCC(C)(C)OC)nc(-c3cnn4ccsc34)n2)CC1 [Example 119, N-[1-({6-[(2-Methoxy-2-methylpropyl)amino]-2-(pyrazolo[5,1-b][1,3]thiazol-7-yl)pyrimidin-4-yl}carbonyl)piperidin-4-yl]propanamide]",4200,> 10000,670
"CCC(CC)N(C)c1cc(C(=O)N2CCC(O)CC2)nc(-c2cnn3ccsc23)n1 [Example 120, (4-Hydroxypiperidin-1-yl){6-[methyl(pentan-3-yl)amino]-2-(pyrazolo[5,1-b][1,3]thiazol-7-yl)pyrimidin-4-yl}methanone hydrochloride]",3000,3400,870
"CC(C)[C@H](C)Nc1cc(C(=O)N2CCC(NC(=O)C3CC3)CC2)nc(-c2cnn3ccsc23)n1 [Example 123, N-(1-{[6-{[(2S)-3-Methylbutan-2-yl]amino}-2-(pyrazolo[5,1-b][1,3]thiazol-7-yl)pyrimidin-4-yl]carbonyl}piperidin-4-yl)cyclopropanecarboxamide]",1400,1600,260
"CCC(CC)Nc1cc(C(=O)N2CCC(NC(=O)C3CC3)CC2)nc(-c2cnn3ccsc23)n1 [Example 124, N-(1-{[6-(Pentan-3-ylamino)-2-(pyrazolo[5,1-b][1,3]thiazol-7-yl)pyrimidin-4-yl]carbonyl}piperidin-4-yl)cyclopropanecarboxamide]",1700,2200,220
"CCC(=O)NC1CCN(C(=O)c2cc(NC3(C)CC3)nc(-c3cnn4ccsc34)n2)CC1 [Example 128, N-[1-({6-[(1-Methylcyclopropyl)amino]-2-(pyrazolo[5,1-b][1,3]thiazol-7-yl)pyrimidin-4-yl}carbonyl)piperidin-4-yl]propanamide]",8500,> 10000,760
"CCC(=O)NC1CCN(C(=O)c2cc(N[C@@H](C)CC)nc(-c3cnn4ccsc34)n2)CC1 [Example 131, N-[1-({6-[(2S)-Butan-2-ylamino]-2-(pyrazolo[5,1-b][1,3]thiazol-7-yl)pyrimidin-4-yl}carbonyl)piperidin-4-yl]propanamide]",2200,4700,310
"COC(=O)NC1CCN(C(=O)c2cc(N(C)C(C)(C)C)nc(-c3cnn4ccsc34)n2)CC1 [Example 132, Methyl [1-({6-[tert-butyl(methyl)amino]-2-(pyrazolo[5,1-b][1,3]thiazol-7-yl)pyrimidin-4-yl}carbonyl)piperidin-4-yl]carbamate hydrochloride]",> 10000,> 10000,790
"CCN(c1cc(C(=O)N2CCC(O)CC2)nc(-c2cnn3ccsc23)n1)C(C)(C)C [Example 133, {6-[tert-Butyl(ethyl)amino]-2-(pyrazolo[5,1-b][1,3]thiazol-7-yl)pyrimidin-4-yl}(4-hydroxypiperidin-1-yl)methanone]",> 10000,> 10000,2900
"CC(C)(C)Nc1cc(C(=O)N2CCC(NC(=O)OC3CC3)CC2)nc(-c2cnn3ccsc23)n1 [Example 135, Cyclopropyl (1-{[6-(tert-butylamino)-2-(pyrazolo[5,1-b][1,3]thiazol-7-yl)pyrimidin-4-yl]carbonyl}piperidin-4-yl)carbamate]",2400,3700,68
"CC(C)[C@@H](C)Nc1cc(C(=O)N2CCC(NC(=O)C(F)F)CC2)nc(-c2cnn3ccsc23)n1 [Example 136, 2,2-Difluoro-N-(1-{[6-{[(2R)-3-methylbutan-2-yl]amino}-2-(pyrazolo[5,1-b][1,3]thiazol-7-yl)pyrimidin-4-yl]carbonyl}piperidin-4-yl)acetamide]",1400,3500,490
"CN(C)C(=O)NC1CCN(C(=O)c2cc(NCC(C)(C)C)nc(-c3cnn4ccsc34)n2)CC1 [Example 137, 3-[1-({6-[(2,2-Dimethylpropyl)amino]-2-(pyrazolo[5,1-b][1,3]thiazol-7-yl)pyrimidin-4-yl}carbonyl)piperidin-4-yl]-1,1-dimethylurea]",1400,4200,640
"C[C@@H](Nc1cc(C(=O)N2CCC(NC(=O)N(C)C)CC2)nc(-c2cnn3ccsc23)n1)C1CC1 [Example 138, 3-(1-{[6-{[(1R)-1-Cyclopropylethyl]amino}-2-(pyrazolo[5,1-b][1,3]thiazol-7-yl)pyrimidin-4-yl]carbonyl}piperidin-4-yl)-1,1-dimethylurea]",2000,4300,650
"CC(C)OC(=O)NC1CCN(C(=O)c2cc(NC3(C)COC3)nc(-c3cnn4ccsc34)n2)CC1 [Example 139, Propan-2-yl [1-({6-[(3-methyloxetan-3-yl)amino]-2-(pyrazolo[5,1-b][1,3]thiazol-7-yl)pyrimidin-4-yl}carbonyl)piperidin-4-yl]carbamate]",2900,2100,43
"COC(=O)NC1CCN(C(=O)c2cc(NC(C3CC3)C3CC3)nc(-c3cnn4ccsc34)n2)CC1 [Example 140, Methyl [1-({6-[(dicyclopropylmethyl)amino]-2-(pyrazolo[5,1-b][1,3]thiazol-7-yl)pyrimidin-4-yl}carbonyl)piperidin-4-yl]carbamate]",770,340,280
"COC(=O)NC1CCN(C(=O)c2cc(Oc3ccccc3)nc(-c3cnn4ccsc34)n2)CC1 [Example 141, Methyl (1-{[6-phenoxy-2-(pyrazolo[5,1-b][1,3]thiazol-7-yl)pyrimidin-4-yl]carbonyl}piperidin-4-yl)carbamate]",> 10000,> 10000,1100
